Results taken from patent EP4623918A1, “AGENT FOR INCREASING BRAIN PLASMALOGEN, AND USE OF ORAL COMPOSITION AND COMPOUND FOR INCREASING BRAIN PLASMALOGEN” (Institute of Rheological Function of Food Co., Ltd., priority 2022, dated 2024).

Experiments:
MeCP2-deficient mice = assay: Effect of KIT-13 on brain plasmalogen in cerebral cortex tissue lysate (LC-MS/MS), MeCP2-deficient mice; assay type: in vivo; settings: male MeCP2-deficient mice, 20 ng/g body weight twice a week by drinking-water administration for three weeks, vs control group given water
Method: Four-week-old male MeCP2-deficient mice lacking the MeCP2 gene on the X chromosome were used in the test. The MeCP2-deficient mice were divided into two groups: a control group (MeCP2-KO) and a KIT-13 administration group (KIT-13).
For the KIT-13 administration group, KIT-13 was suspended in water by ultrasonication, and administered twice a week by drinking-water administration such that 20 ng/g body weight of KIT-13 was taken. In contrast, the control group was given only water in a similar manner. KIT-13 was administered for three weeks until the mice were seven weeks old, and the cerebral cortex was collected from the brains of the mice.
(§1) The collected cerebral cortex was homogenized in a lysate (0.25 M sucrose, 10 mM HEPES-KOH (pH 7.4), 1 mM EDTA, and a protease inhibitor cocktail) to prepare a tissue lysate (25 µg protein). To the tissue lysate in a sample tube, 400 µL of MeOH and 100 µL of internal standard IS (C12 phosphatidylethanolamine (PE) and C12 phosphatidylcholine (PC)) dissolved in chloroform/methanol (C:M=1:2) were added and then mixed. The resulting mixture was transferred to a glass tube. […] Thereafter, the sample was dried under nitrogen gas, dissolved in MeOH, and analyzed using liquid chromatography-mass spectrometry (LC-MS/MS). […]

[1] = tested on: wild-type mice (male, C57BL/6J mice); assay: Effect of KIT-13 on cerebral cortex PlsEtn (LC-MS/MS), wild-type mice; assay type: in vivo; settings: wild-type male C57BL/6J mice; KIT-13 given as in Example 2 for four weeks; control group taken as 1; FIG. 2
Method: For the KIT-13 administration group, KIT-13 was suspended in water by ultrasonication, and administered twice a week by drinking-water administration such that 20 ng/g body weight of KIT-13 was taken. In contrast, the control group was given only water in a similar manner. […]
as §1, with “tube. Then, 200 µL of MeOH was added again to the sample tube, and after the same operation, the resulting mixture was transferred to the glass tube. To the sample, 1.2 mL of C/M (1:1) was added, mixed, sonicated for 5 minutes, and left to stand for 60 minutes.” for “tube.”
Four-week-old wild-type mice (male, C57BL/6J mice, manufactured by the Jackson Laboratory Japan, Inc.) were divided into two groups: a control group and a KIT-13 administration group. […] PlsEtn in the collected cerebral cortex was quantified as with Example 2.

CCCCCC=CCC=CCC=CCC=CCCCC(=O)OC(COCCCCCCCCCCCCCCCCCC)COP(=O)(O)OCCN [KIT-13, 2-(hydroxy((R)-2-(((5Z,8Z,11Z,14Z)-icosa-5,8,11,14-tetraenoyl)oxy)-3-(octadedecyloxy)propoxy)phosphoryl)oxy)ethane-1-ammonium 2,2,2-trifluoroacetate]
significantly increased: concentration of PlsEtn in the tissue lysate (MeCP2-deficient mice; p < 0.05, FIG. 1A) | concentration of PlsEtn in which the sn-1 position is a saturated aliphatic hydrocarbon group having 18 carbon atoms (PlsEtn-C18:0), in the tissue lysate (MeCP2-deficient mice; p < 0.05, FIG. 1B) | relative PlsEtn amount in the cerebral cortex [1]
